Like-named read-outs stand apart in the source and are kept apart here.
Legend:
[1] = Aqueous solubility assay in buffer and simulated gastric/intestinal fluids
Experimental: The target concentration in each solution was 100 μM. […] The aqueous solutions were added (1 mL) to the dried samples and mixed at 400 rpm at 37° C. on an orbital plate shaker. […] Samples were prepared in triplicate. Testosterone and verapamil were used as reference compounds.

[2] = Caco-2 bi-directional permeability, absence and presence of P-gp inhibitor verapamil; type: in vitro ADME; details: human; Caco-2, P-gp inhibitor absent
Experimental: (§1) The Caco-2 bi-directional permeability of the compound of Example 1 was evaluated in the absence and presence of a known P-gp inhibitor, verapamil.

Caco-2 = assay: as above; type: in vitro ADME
Experimental: as §1

[3] = Concentration achieved in formulations and excipient mixtures; type: physicochemical
Experimental: In initial formulation work for the amidine compounds described herein, in particular 3-[2-(4-carbamimidoyl-phenylcarbamoyl)-5-methoxy-4-vinyl-phenyl]-6-(cyclopropylmethyl-carbamoyl)-pyridine-2-carboxylic acid, extensive studies were carried out to identify a suitable mixture of excipients to produce the oral formulation described herein.
Specifically, a variety of approaches were taken to develop suitable oral formulations of 3-[2-(4-carbamimidoyl-phenylcarbamyl)-5-methoxy-4-vinyl-phenyl]-6-(cyclopropylmethyl-carbamoyl)-pyridine-2-carboxylic acid. The approaches taken included use of a variety of hydrophilic polymers, including α-cyclodextrin and a polyanionic 3-cyclodextrin derivative with a sodium sulfonate salt separated from the lipophilic cavity by a butyl ether or sulfobutylether spacer group in combination with a variety of co-solvents. In addition, the compound was evaluated in formulations created by a number of different technologies (such as dry blends, nanosuspensions, solid dispersion and emulsions) using a variety of approaches.

[4] = octanol-PBS pH 7.4 partition coefficient (log D7.4) assay; type: physicochemical; details: octanol/0.01 M phosphate buffer pH 7.4, 24 hours, LC/MS/MS
Experimental: A 1 μL volume of a 1 mM stock solution of the compound in dimethyl sulfoxide (DMSO) was added to 500 μL 0.01 M phosphate buffer pH 7.4 (saturated with octanol) and 500 μL of octanol (saturated with 0.01 M phosphate buffer). […] Samples were prepared in triplicate.

[5] = Phase 1 Part 2, multiple ascending dose pharmacokinetics (7 days, q8h); type: in vivo, human; details: for Cmax / AUC(0-t) / Tmax / AUC / half-life / concentration at 8 h: human, plasma, oral; for AUC(0-t): read-out: AUC0-8; for concentration at 8 h: read-out: Ctau
Experimental: Part 2 of the study evaluated the safety, tolerability, PK, and PD of multiple ascending doses of the compound of Example 1. Twelve subjects were administered a 7-day course of the compound of Example 1 (n=10 subjects/cohort received the API and n=2 subjects/cohort received matching placebo) according to the following dose regimens: 100 mg of the compound of Example 1 or placebo every 8 hours (q8h) in Cohort 1; 200 mg of the compound of Example 1 or placebo q8h in Cohort 2; 400 mg of the compound of Example 1 or placebo q8h in Cohort 3 and 800 mg of the compound of Example 1 or placebo q8h in Cohort 4.
A total of 48 subjects were enrolled in Part 2 of the Study and 47 subjects completed the study. A summary of pharmacokinetic parameters for the compound of Example 1 for the first dose on Day 1 and last dose on Day 7 is presented in Table 17. […] Day 7 geometric mean exposure (AUCtau and Cmax) did increase with increasing dose. Drug exposure was dose proportional through 400 mg three times a day. At 400 mg three times a day, pre-dose geometric mean drug levels and coefficient of variation (CV) on day 7 were 28.6 ng/ml and 77% and post-dose geometric mean maximum drug levels and CV were 152 ng/ml and 57%. Plasma concentrations of the compound of Example 1 over 25 ng/ml are expected to be efficacious in treating conditions such as, but not limited to, HAE and AAE.

[6] = 400 mg three times a day, day 7
[7] = 100 mg, Day 1, 100 mg q 8 h, GM
[8] = 100 mg, Day 1, 100 mg q 8 h, Median
[9] = 100 mg, Day 7, 100 mg q 8 h, GM
[10] = 100 mg, Day 7, 100 mg q 8 h, Median
[11] = 200 mg, Day 1, 200 mg q 8 h, GM
[12] = 200 mg, Day 1, 200 mg q 8 h, Median
[13] = 200 mg, Day 7, 200 mg q 8 h, GM
[14] = 200 mg, Day 7, 200 mg q 8 h, Median
[15] = 400 mg, Day 1, 400 mg q 8 h, GM
[16] = 400 mg, Day 1, 400 mg q 8 h, Median
[17] = 400 mg, Day 7, 400 mg q 8 h, GM
[18] = 400 mg, Day 7, 400 mg q 8 h, Median
[19] = 800 mg, Day 1, 800 mg q 8 h, GM
[20] = 800 mg, Day 1, 800 mg q 8 h, Median
[21] = 800 mg, Day 7, 800 mg q 8 h, GM
[22] = 800 mg, Day 7, 800 mg q 8 h, Median

C=Cc1cc(C(=O)Nc2ccc(C(=N)N)cc2)c(-c2ccc(C(=O)NCC3CC3)nc2C(=O)O)cc1OC [Example 1, 3-[2-(4-carbamimidoyl-phenylcarbamoyl)-5-methoxy-4-vinyl-phenyl]-6-(cyclopropylmethyl-carbamoyl)-pyridine-2-carboxylic acid]
solubility at 24 h ([1]; 37 °C, fassgf or other biorelevant, thermodynamic from solid, Observed Solubility, Target 100 μM, Fasted-State SGF, 24 hours): 109 µM
solubility at 24 h ([1]; 37 °C, fassgf or other biorelevant, thermodynamic from solid, Observed Solubility, Target 100 μM, Fed-State SGF, 24 hours): 99 µM
solubility at 24 h ([1]; 37 °C, fassif, thermodynamic from solid, Observed Solubility, Target 100 μM, Fasted-State SIF, 24 hours): 111 µM
solubility at 24 h ([1]; 37 °C, fessif, thermodynamic from solid, Observed Solubility, Target 100 μM, Fed-State SIF, 24 hours): 119 µM
solubility at 24 h ([1]; 37 °C, pH 7.4, aqueous buffer, thermodynamic from solid, Observed Solubility, Target 100 μM, 0.1M phosphate buffer pH 7.4, 37° C., 24 hours): 118 µM
solubility at 24 h ([1]; solubility, aqueous/physiological fluids): 100 µg/mL
Papp A→B [2]: 0.5 ×10⁻⁶ cm/s
Papp B→A [2]: 0.5 ×10⁻⁶ cm/s
efflux ratio [2]: 0.9
permeability class (Caco-2; Caco-2 bi-directional): low permeability compound
P-gp substrate (Caco-2; Caco-2 with and without verapamil): does not appear to be a substrate of P-gp
concentration dissolved ([3]; 1,2-propanediol, especially as part of a mixture of polar protic solvents): up to 140 mg/ml
concentration in formulation ([3]; initial formulations: cyclodextrins, co-solvents, dry blends, nanosuspensions, solid dispersion, emulsions): less than 10.5 mg/ml
concentration in formulation ([3]; novel excipient mixtures of the invention): at least 100 mg/ml
concentration dissolved ([3]; polyethylene glycol 600, especially as part of a mixture of polar protic solvents): up to 140 mg/ml
logD at 24 h [4]: 1.9
post-dose geometric mean maximum drug level [5, 6]: 152 ng/mL
pre-dose geometric mean drug level [5, 6]: 28.6 ng/mL
accumulation in Cmax and AUC after repeated dosing compared to first day ([5]; 7 days q8h): approximately 30%
Ctau ([5]; Day 7, 100 mg q 8 h, GM): 8.34 ng/mL
DN AUCtau ([5]; Day 7, 100 mg q 8 h, GM): 2.37 ng·h/mL/mg
Ctau ([5]; Day 7, 100 mg q 8 h, Median): 7.92 ng/mL
DN AUCtau ([5]; Day 7, 200 mg q 8 h, GM): 1.58 ng·h/mL/mg
DN AUCtau ([5]; Day 7, 400 mg q 8 h, GM): 1.34 ng·h/mL/mg
Ctau ([5]; Day 7, 800 mg q 8 h, GM): 23.7 ng/mL
DN AUCtau ([5]; Day 7, 800 mg q 8 h, GM): 0.847 ng·h/mL/mg
Ctau ([5]; Day 7, 800 mg q 8 h, Median): 30.3 ng/mL
time of maximal concentrations postdose ([5]; across dosing days and cohorts): approximately 2 hours
Cmax [5, 7]: 54.5 ng/mL
AUC(0-t) [5, 7]: 173 ng·h/mL
Cmax [5, 8]: 49.4 ng/mL
Tmax [5, 8]: 1 h
AUC(0-t) [5, 8]: 185 ng·h/mL
AUC [5, 9]: 237 ng·h/mL
Cmax [5, 9]: 72.6 ng/mL
half-life ([5]; 100 mg, Day 7, 100 mg q 8 h, GM, read-out: t1/2 (converted)): 12.4 h
AUC [5, 10]: 246 ng·h/mL
Cmax [5, 10]: 71.2 ng/mL
Tmax [5, 10]: 2 h
half-life ([5]; 100 mg, Day 7, 100 mg q 8 h, Median, read-out: t1/2 (converted)): 11.5 h
Cmax [5, 11]: 72 ng/mL
AUC(0-t) [5, 11]: 236 ng·h/mL
Cmax [5, 12]: 89.7 ng/mL
Tmax [5, 12]: 2 h
AUC(0-t) [5, 12]: 251 ng·h/mL
AUC [5, 13]: 316 ng·h/mL
Cmax [5, 13]: 83.6 ng/mL
concentration at 8 h [5, 13]: 12.9 ng/mL
half-life ([5]; 200 mg, Day 7, 200 mg q 8 h, GM, read-out: t1/2 (converted)): 12.6 h
AUC [5, 14]: 385 ng·h/mL
Cmax [5, 14]: 92.3 ng/mL
Tmax [5, 14]: 2 h
concentration at 8 h [5, 14]: 13 ng/mL
half-life ([5]; 200 mg, Day 7, 200 mg q 8 h, Median, read-out: t1/2 (converted)): 13.5 h
Cmax [5, 15]: 119 ng/mL
AUC(0-t) [5, 15]: 421 ng·h/mL
Cmax [5, 16]: 124 ng/mL
Tmax [5, 16]: 2 h
AUC(0-t) [5, 16]: 395 ng·h/mL
AUC [5, 17]: 534 ng·h/mL
Cmax [5, 17]: 152 ng/mL
concentration at 8 h [5, 17]: 17.4 ng/mL
half-life ([5]; 400 mg, Day 7, 400 mg q 8 h, GM, read-out: t1/2 (converted)): 13 h
AUC [5, 18]: 463 ng·h/mL
Cmax [5, 18]: 129 ng/mL
Tmax [5, 18]: 2 h
concentration at 8 h [5, 18]: 14.6 ng/mL
half-life ([5]; 400 mg, Day 7, 400 mg q 8 h, Median, read-out: t1/2 (converted)): 12.7 h
Cmax [5, 19]: 143 ng/mL
AUC(0-t) [5, 19]: 504 ng·h/mL
Cmax [5, 20]: 153 ng/mL
Tmax [5, 20]: 2 h
AUC(0-t) [5, 20]: 581 ng·h/mL
AUC [5, 21]: 678 ng·h/mL
Cmax [5, 21]: 187 ng/mL
half-life ([5]; 800 mg, Day 7, 800 mg q 8 h, GM, read-out: t1/2 (converted)): 7.46 h
AUC [5, 22]: 835 ng·h/mL
Cmax [5, 22]: 240 ng/mL
Tmax [5, 22]: 2 h
half-life ([5]; 800 mg, Day 7, 800 mg q 8 h, Median, read-out: t1/2 (converted)): 8.03 h
half-life ([5]; calculated over a 24 hour period, read-out: terminal elimination half-life (converted)): ~10 h

Reference: US10905683B2, “Compositions and uses of amidine derivatives” (BIOCRYST PHARMACEUTICALS, INC., priority 2014, dated 2021)
